“Also recorded” adds a separate entry of the source. One block for each compound: values may come before it.
Tests used:
Format in all cases: physicochemical
[1] = Dynamic vapor sorption (DVS) with XRPD of the post-DVS sample; settings: for solid form by XRPD after the DVS experiment: post DVS sample
Procedure: Samples were analyzed using an Aquadyne DVS-2 gravimetric water sorption analyzer. The relative humidity was adjusted between 2-95% and the weight of the sample was continuously monitored and recorded.
[…]: β-GPA maleate (1:1) Form II, β-GPA fumarate (1:1), β-GPA maleate (2:1), β-GPA succinate (2:1) and β-GPA oxalate (1:1) were analyzed by DVS experiment followed by XRPD analysis of the sample at the end of the experiment.
Sample 2162-64-1 was analyzed by DVS in triplicate and the post DVS samples were characterized by XRPD to identify the form at the end of the experiment.

[2] = Bulk and tapped density
Procedure: The bulk density of β-GPA oxalate (Pattern 18 B), succinate (Pattern 15A), and fumarate (Pattern 7A) were determined by pouring in a known amount of salt (g) into a measuring cylinder. The volume (Vi) occupied by the salt was recorded and the bulk density (ρB) was determined using equation 1. ρB=g/Vi (1)
The tapped densities of the salts were determined using a Tap density analyzer. A known amount of salt was poured (g) into a measuring cylinder and the initial volume was recorded and tapped using a Tap density analyzer. The final volume (Vf) after tapping was recorded and the tapped density (ρT) was calculated by using equation 2. ρT=g/Vf (2)

[3] = Carr's index and Hausner ratio (predicted flowability); settings: for Carr's index / Hausner ratio: calculated from bulk and tapped volumes; for Flow character: predicted, scale of Table 6 (Carr's index)
Description: The flow properties of β-GPA are sub-optimal. The bulk density is 0.389 g/cc and the tapped density is 0.627 g/cc. These measurements can be used to calculate the Carr's index and Hausner ratio for a substance. The Carr's index and Hausner ratio are indicators of flowability of a powder. As known in the art, e.g., as described in Carr R. L. Chem. Eng. 1965, 72, 163-168, the relationship to flowability of a powder to the Carr's index and Hausner ratio is based on the scale shown in Table 6 below.
Carr's index or Carr's compressibility index (C) is an indication of the compressibility of a powder. It can be calculated using the equation below: Carr's index (C)=100(Vi−Vf)/Vi (3) A Carr's index greater than 25 is considered to be an indication of poor flowability while a value below 15 is an indication of good flowability.
The Hausner ratio is a number that is correlated to the flowability of a powder or granular material. It is calculated by using the equation below: Hausner ratio=Vi/Vf (4)

[4] = Flowability measurement using Hanson Flodex unit
Description: Method: A cylindrical vessel is secured to the stand and above that a funnel is also secured such that the bottom of the funnel is close to the vessel. A powder load of ≈50-60 g is then poured through the funnel into the middle of the cylinder. The lever device is pulled to open the hole in the disk quickly and without vibration. If a powder slowly flows through the small-diameter holes, leaving a cavity shaped like an upside-down, truncated cone, the test is considered positive. If a powder flocculates in bulk and falls abruptly, forming a cylindrical cavity, the test is considered negative. […] If the experiment is negative, the powder is tested again with a disk having a larger hole.

[5] = Solid form stability of 2:1 β-GPA fumarate at various temperature/humidity conditions (XRPD); settings: for XRPD: a week
Procedure: The solid form stability of β-GPA fumarate was studied at various temperature/humidity conditions as listed in Table 23 for a week using saturated salt solution chambers. The samples were analyzed by XRPD after a week.

[6] = Gravimetric solubility of 2:1 β-GPA fumarate in solvents
Procedure: Solubility of β-GPA fumarate was measured gravimetrically in fifteen different solvents and solvent mixtures at 15 and 45° C. About 100 mg of the compound was dispensed in ten volumes (1 mL) of the solvent/solvent mixture and slurried for 48 hours. Table 24 represents the solubility of β-GPA fumarate in different solvents. After 48 hours the vials were centrifuged. The supernatant was collected and left for slow evaporation under vacuum at 45° C. and solubility was determined. The solids obtained after centrifugation and evaporation were analyzed by XRPD.

[7] = Temperature cycling experiments of 2:1 β-GPA fumarate
Procedure: The following (Table 26) experiments were performed to isolate possible polymorphic forms of 2:1 β-GPA fumarate.

[8] = Carr's index and Hausner ratio (predicted flowability); settings: Table 18, scale of Table 17
[9] = Solid form stability under stressed conditions (wet, dry, high humidity) by XRPD
Procedure: The solid form stability of each salt was studied by XRPD under stressed conditions: wet, dry (45° C. under vacuum) and high humidity (RH >95%).

[10] = Solid form stability of salts in different solvents (slurry, XRPD); settings: 48 hours, room temperature
Procedure: Three salts were studied for solid form stability in water (disproportionation test), methanol, acetonitrile, and acetone:water (9:1) for 48 hours at room temperature.

[11] = Solid form stability at 40° C. and 75% humidity; settings: 40° C. and 75% RH for seven days
Procedure: Solid form stability studies of β-GPA fumarate, succinate, and oxalate were carried out at 40° C. and 75% RH for seven days. Around 30 mg of the salts were placed in 4 mL vials which were placed in a saturated solution of sodium chloride (2 mL) with lids closed at 40° C. […]

moisture uptake during the DVS experiment [1]: less than 0.1%
solid form by XRPD after the DVS experiment ([1]; listed as 2162-64-1): identical to β-GPA fumarate (Pattern 7A)
Bulk density [2]: 0.576 g/cc
Tapped density [2]: 0.613 g/cc
Carr's index [3]: 5.9
Hausner ratio [3]: 1.063
Flow character [3]: Excellent (1-10)
Did solid pass? ([4]; Disc pore size 4 mm): No
Did solid pass? ([4]; Disc pore size 5 mm): Yes
Did solid pass? ([4]; Disc pore size 6 mm): Yes
Did solid pass? ([4]; Disc pore size 12 mm): Yes
XRPD ([5]; 20° C., 43% relative humidity): Pattern 7A
XRPD ([5]; 20° C., 59% relative humidity): Pattern 7A
XRPD ([5]; 20° C., 73% relative humidity): Pattern 7A
XRPD ([5]; 20° C., >95% relative humidity): Pattern 7A
XRPD ([5]; 40° C., 82% relative humidity): Pattern 7A
XRPD ([5]; 60° C., 50% relative humidity): Pattern 7A
XRPD ([5]; 60° C., 80% relative humidity): Pattern 7A
solid form stability ([5]; RH >95% at 20° C.): stable
Solubility ([6]; Acetone, 15° C.): <1000 µg/mL
Solubility ([6]; Acetone, 45° C.): <1000 µg/mL
Solubility ([6]; Acetone:H2O (9:1), 15° C.): 2500 µg/mL
Solubility ([6]; Acetone:H2O (9:1), 45° C.): 4100 µg/mL
Solubility ([6]; DCM, 15° C.): <1000 µg/mL
Solubility ([6]; DCM, 45° C.): 500 µg/mL
Solubility ([6]; EtOAc, 15° C.): <1000 µg/mL
Solubility ([6]; EtOAc, 45° C.): <1000 µg/mL
Solubility ([6]; EtOH, 15° C.): <1000 µg/mL
Solubility ([6]; EtOH, 45° C.): <1000 µg/mL
Solubility ([6]; H2O:MeOH:IPA (3:5.5:5), 15° C.): <1000 µg/mL
Solubility ([6]; H2O:MeOH:IPA (3:5.5:5), 45° C.): <1000 µg/mL
Solubility ([6]; Heptane, 15° C.): <1000 µg/mL
Solubility ([6]; Heptane, 45° C.): <1000 µg/mL
Solubility ([6]; IPA, 15° C.): <1000 µg/mL
Solubility ([6]; IPA, 45° C.): <1000 µg/mL
Solubility ([6]; IPA:H2O (9:1), 15° C.): 1640 µg/mL
Solubility ([6]; IPA:H2O (9:1), 45° C.): 2100 µg/mL
Solubility ([6]; MeCN, 15° C.): <1000 µg/mL
Solubility ([6]; MeCN, 45° C.): <1000 µg/mL
Solubility ([6]; MeOH, 15° C.): ~1000 µg/mL
Solubility ([6]; MeOH, 45° C.): 2730 µg/mL
Solubility ([6]; MeOH:H2O (9:1), 15° C.): 9200 µg/mL
Solubility ([6]; MeOH:H2O (9:1), 45° C.): 11200 µg/mL
Solubility ([6]; TBME, 15° C.): 3000 µg/mL
Solubility ([6]; TBME, 45° C.): 28900 µg/mL
Solubility ([6]; THF:H2O (9:1), 15° C.): 2080 µg/mL
Solubility ([6]; THF:H2O (9:1), 45° C.): 4120 µg/mL
Solubility ([6]; Water, 15° C.): 30000 µg/mL
Solubility ([6]; Water, 45° C.): >100000 µg/mL
XRPD analysis of the precipitates after 48 hours slurries ([6]; fifteen solvents and solvent mixtures at 15 and 45° C.): no form transformations
Result (XRPD) ([7]; 50° C. 2 hours, RT, 50° C. 48 hours): Pattern 7A
Result (XRPD) ([7]; dry ice-acetone 30 minutes, RT): Pattern 7A
Result (XRPD) ([7]; heated to 150° C. and brought to room temperature, cycle repeated three times): Pattern 7A
Result (XRPD) ([7]; vacuum oven 130° C. 2 hours, RT, 130° C. 48 hours): Pattern 7A
Flow character [8]: Excellent (1-10)
SMILES: N=C(N)NCCC(=O)O.N=C(N)NCCC(=O)O.O=C(O)/C=C/C(=O)O [β-GPA fumarate (2:1)]
solid form by XRPD after the DVS experiment ([1]; listed as 2:1 fumarate salt): did not exhibit any dissociation of the salt
XRPD pattern ([5]; RH >95% at room temperature, 48 hours): retain its original XRPD pattern (Pattern 7A)

solid form by XRPD after the DVS experiment [1]: retained their XRPD
solid form by XRPD after the DVS experiment ([1]; listed as 1:1 oxalate salt): no form change
solid form by XRPD after the DVS experiment ([1]; listed as 1:1 β-GPA oxalate): no form change
Dry_XRPD pattern ([9]; dry (45° C. under vacuum)): Pattern 18A
stability in dry conditions ([9]; dry conditions): stable
Humid_XRPD pattern ([9]; high humidity (RH >95%)): Pattern 18A
stability under high humidity conditions ([9]; high humidity conditions): stable
Wet_XRPD pattern ([9]; wet): Pattern 18A
XRPD pattern after slurry ([10]; acetone:water (9:1)): retain their XRPD pattern
XRPD pattern after slurry ([10]; acetonitrile): retain their XRPD pattern
XRPD pattern after slurry ([10]; methanol): retain their XRPD pattern
XRPD pattern after slurry ([10]; water (disproportionation test)): retained their XRPD patterns
XRPD pattern after slurry ([10]; water (disproportionation test), listed as 1:1 β-GPA oxalate): retained their XRPD pattern
solid form stability (XRPD) ([11]; listed as 1:1 oxalate salt): stable
Bulk density [2]: 0.505 g/cc
Tapped density [2]: 0.623 g/cc
Carr's index [3]: 18.7
Hausner ratio [3]: 1.23
Flow character [3]: Fair (16-20)
Did solid pass? ([4]; Disc pore size 12 mm): No
Did solid pass? ([4]; Disc pore size 18 mm): No
Did solid pass? ([4]; Disc pore size 24 mm): No
Did solid pass? ([4]; Disc pore size 26 mm): Yes
Did solid pass? ([4]; Disc pore size 28 mm): Yes
Did solid pass? ([4]; Disc pore size 30 mm): Yes
flow character from the experimental data ([4]; summary of density and Flodex measurements): fair
Flow character [8]: Fair (16-20)
SMILES: N=C(N)NCCC(=O)O.O=C(O)C(=O)O [β-GPA oxalate (1:1)]
solid form stability (XRPD) [11]: retained their original XRPD pattern; also recorded: stable
